In PMC5557808 (Nature Communications, 2017):

Experiments:
[1] = test system: MMP-1, MMP-8, MMP-9, MMP-13; assay: MMP selectivity of the soluble PCL carboxyfluorescein conjugate; format: biochemical, human; conditions: MMPs at 900 ng/mL, 60 min, 37 °C; HPLC
Protocol: (§1) Pro-MMPs (e.g., MMP-8, MMP-1, or MMP-9; used at 0.1 mg/mL and >100.0 mU/mg based on the manufacturer’s information) were activated with p-aminophenylmercuric acetate (APMA) (8). For that, a 10 mM stock solution of APMA was freshly prepared in 0.1 M NaOH and a 10:1 (v/v) ratio of the respective proenzyme and the APMA solution (MMP:APMA) was incubated for 3 h at 37 °C. The activity was confirmed using the MMP-8 detection kit (QuickZyme Biosciences, Leiden, the Netherlands). […]
Enzymatic reactions were stopped using 4 µL 250 mM ED TA in case of the sensor or heating in cas e of uncoupled PCL (95 °C for 15 minutes; the beads of the sensor would melt at h eatin g due to a different method used). Cleavage was analyzed by […] an al ysis (PCL) or by flow c yto metr y (sensor) in co mpar ison to negative controls (the negative controls for the PCL an d sensor exper i men ts were b y incubation without MMP under otherwise identical conditions). The relative d ecreas e of the PCL’s ma in peak was char act er ized by HPLC (PCL) or of the sensor’s fluorescence b y FACS (sensor) in comparison to control. […]

MMP-8 [2] = molecular target: T1, MMP-8 (Homo sapiens, UniProt P22894); assay: MMP-8 cleavage of soluble PCL conjugates (HPLC decrease of main peak); format: biochemical; conditions: 900 ng/mL MMP-8, after 360 min; 0.5 mg/mL substrate, MMP-8 buffer pH 6.8-7.0, 37 °C under agitation; HPLC; mean, n = 8
T1 construct: purchased EMD Millipore Corporation (Billerica, MA)
Protocol: as §1, with “Netherlands). A stock solution (90 µg/mL) of the activated MMP was prepared (used for cleavage studies on the PCL or the fully assembled microparticle-PCL-tastant setup (sensor), in MMP-8 buffer (200 mM NaCl, 50 mM Tris-HCl, 5 mM CaCl2, 1 µM ZnCl2, 0.05% Brij 35 at pH 6.8–7.0). All MMP experiments are described in detail in the Supplementary Methods.” for “Netherlands).”
in water ( v/v)) and eluent B (0.1 % TFA in 2:3 water-acetonitrile (v/v)) and a gradient from 33 to 80% elu ent B within 30 minutes. UV absorption was r ead at λ = 280 nm or 220 nm. After freezing the samples at -80 °C, fr eeze- drying was performed on a Christ Alpha 1 -4 de vi ce (Martin Christ Gefriertrocknungs anlagen, Osterode am Harz, G e r ma n y) at a desublimers ’ te mperature of - 60 ° C, pressure of 1.030 mbar and processing temperature of 19 °C.
Pro-MMPs (e. g. MMP -8, MMP -1 or MMP-9; adapted to 0.1 mg/mL and > 100.0 mU/mg based on manufacturer information and when appropriate) were activated with APMA 8. For that, a 10 mM stock solution of APMA in 0.1 M NaOH was freshly prepared and a 10:1 (v/v) ratio of the r especti ve proenzyme and APMA solution (MMP:APMA) was incubated for 3 h at 37 °C. The activity was conf ir med using the MMP-8 detection kit (Q uic kZ ym e® Biosciences, Leiden, Netherlands). A stock solution (90 µg/mL) of the activated MMP was prepared (used for cleavage studies on the pr ot eas e-cleavable linker (PCL; e.g. Figure 2) or the fully assemb led microparticle -PCL- t ast ant setup (sensor; e.g. Figure 3) , in MMP -8 buffer (200 mM NaCl, 50 mM Tris-H Cl, 5 mM C aC l2, 1 µM ZnCl2, 0.05 % Brij35 at pH 6.8- 7.0). A ll MMP -8 exp eriments wer e performed as follo ws. 25 µg of the sensor ( see chap ter : Peptide-coupling to beads (Sensor)) in 100 µL MMP-buffer or 1 mg of FP LC -purified and lyophilized PCL as described dissolved 2 mL M MP -buffer resulting in a final concentration of 0.5 mg/ mL substrate was used. […]
Figure 2A , 3, 4B ). […]
(sensor) in co mpar ison to negative controls (the negative controls for the PCL an d sensor exper i men ts were b y incubation without MMP under otherwise identical conditions). The relative d ecreas e of the PCL’s ma in peak was char act er ized by HPLC (PCL) or of the sensor’s fluorescence b y FACS (sensor) in comparison to control. […]

[3] = test system: Leucine aminopeptidase (AP); assay: AP buffer (50 mM Tris-HCl, 1 mM CaCl2, and 150 mM NaCl at pH 7.0); conditions: porcine kidney, 37 °C, up to 20 h
human tongue = conditions: cited from earlier work
Protocol: Sensor design was driven by physiological insights on taste. Structurally diverse molecules are bitter tasting, including polyphenols, flavonoids, or methylxanthines (caffeine)[3]. The main function of sensing bitter taste is linked to the detection of poisonous substances. This would readily explain why bitter taste is so sensitively recognized with some molecules being recognized in the nanomolar range[4]. The human tongue senses bitterness of denatonium down to concentrations of 10 nM with consumer products containing as little as 30–100 ppm[5]. […] To date, it is the mo s t bitter substance known and th e b itter taste can be detected at concentrations of 10 ppb 2. Because of its lower toxicity as co mpar ed to the b itter molecules brucine 3 or str ychnin e it is wid el y used as an additive for denaturing alcohol, deter gents, dis ...

MMP-8 [4] = assay: MMP-8 buffer (200 mM NaCl, 50 mM Tris-HCl, 5 mM CaCl2, 1 µM ZnCl2, 0.05% Brij 35 at pH 6.8–7.0); conditions: human, 37 °C, up to 6 hours
[5] = test system: Leucine aminopeptidase (AP); assay: AP-incubated peptide (without MMP-8); conditions: porcine kidney
MMP-8 [6] = assay: MMP-8 in MMP-8 buffer; conditions: human, 37 °C, up to 22 h
[7] = test system: Leucine aminopeptidase from porcine kidney; assay: AP buffer (50 mM Tris-HCl, 1 mM CaCl2 and 150 mM NaCl at pH 7.0); conditions: 37 °C, up to 20 h

T1 sequence (P22894 101-467): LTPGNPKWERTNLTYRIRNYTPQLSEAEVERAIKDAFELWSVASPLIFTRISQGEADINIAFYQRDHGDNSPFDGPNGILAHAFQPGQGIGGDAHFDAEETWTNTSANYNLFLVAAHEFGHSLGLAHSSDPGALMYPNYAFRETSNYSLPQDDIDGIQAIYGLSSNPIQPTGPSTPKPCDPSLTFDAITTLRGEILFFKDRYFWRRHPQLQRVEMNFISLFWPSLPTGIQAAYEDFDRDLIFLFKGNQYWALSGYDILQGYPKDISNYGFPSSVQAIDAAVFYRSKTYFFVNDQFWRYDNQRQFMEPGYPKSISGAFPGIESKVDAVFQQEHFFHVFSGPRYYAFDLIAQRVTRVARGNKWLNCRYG

In the case of “Cf-GP QGIA GQ-A( N3)-Q [ID #1b, PCL carboxyfluorescein conjugate]”, the “MMP sensitivity rank order of the soluble PCL conjugate” value [1] is reported as “MMP-8 = MMP-9 > MMP-13 > MMP-1” and the “Cleavage (%) of the PCL over incubation time, plateau” value (MMP-8 [2]) is reported as > 50%.

For I AGQ-K-De, the fragment found [3] was “denatonium coupled to lysine”.

For `CC[N+](CC)(CC(=O)Nc1c(C)cccc1C)Cc1ccccc1.[Cl-]` [Denatonium chloride], the “concentration at which the bitter taste can be detected” value (human tongue; ref 2 (Supplementary References)) is listed as 10 ppb.

For De-GPQGIAGQ-A( N3)-Q, the cleaved bond (MMP-8 [4]) was “G-I”, the not cleaved [5] was “one HPLC-peak at 7.178 min with a mass of 1331.9 Da, as negative control” and the cleaved bond (MMP-8 [6]) was “G-I”.

With De-GPQGIAGQ-A(N3)-Q the not cleaved [7] was “one HPLC peak, mass 1331.9 Da after AP incubation”.

In the case of `CC[N+](CC)(CC(=O)Nc1c(C)cccc1C)Cc1ccccc1` [Denatonium, Denatonium benzoate], the “concentration down to which the human tongue senses bitterness” value (human tongue) is given as 10 nM.
